Laboratory results as given in article PMC9853848 (Journal of the American Chemical Society, 2022).
Like-named read-outs stand apart in the source and are kept apart here.

Legend:
[1] = tested on: T1, P91; format: biochemical, uncultured bacterium; settings: read-out: KM (μM) ^b
T1 construct: full-length, N-terminal His6-tag, purified recombinant (E. coli); Cys118-His199-Asp167 triad

[2] = biological target: T1, P91; format: biochemical, uncultured bacterium
[3] = tested on: P91; settings: P91-R2; 25 °C, pH 8.0; covalent intermediate

Compound | Km [1] [µM] | Ki [2] [µM] | Km [3] [µM]
CCOP(=O)(OCC)Oc1ccc2c(c1)Oc1cc(OP(=O)(OCC)OCC)ccc1C21OC(=O)c2ccccc21 [compound 1, FDDEP] | 46 ± 9.7 | 290 ± 89 | 
CCOP(=O)(OCC)Oc1ccc([N+](=O)[O-])cc1 [compound 2, paraoxon-ethyl] |  |  | 290
